From paper PMC5046737, “Target and Non-target Site Mechanisms Developed by Glyphosate-Resistant Hairy beggarticks (Bidens pilosa L.) Populations from Mexico” (Frontiers in Plant Science, 2016)

Tests used:
[1] = test system: EPSPS of the resistant R1 population (EPSPS1 and EPSPS2, mixed alleles); settings: read-out: I50; raw leaf extract, mixed isozymes and alleles (wild type, P106S, T102I/P106S); stated gain
Description: EPSPS activity in leaf extract, continuous phosphate release (EnzChek) on EPSPS of the resistant R1 population (EPSPS1 and EPSPS2, mixed alleles)

[2] = test system: T1, EPSPS of the resistant R2 population (EPSPS1 and EPSPS2); experiment: EPSPS activity in leaf extract, continuous phosphate release (EnzChek); format: biochemical, Bidens pilosa; settings: raw leaf extract, mixed isozymes; no EPSPS mutation found in this resistant population; read-out: I50
T1 construct: native enzyme in raw leaf extract; isozyme mix unknown

[3] = test system: T2, EPSPS of the susceptible (S) population (EPSPS1 and EPSPS2); experiment: as above; format: biochemical, Bidens pilosa; settings: raw leaf extract, mixed isozymes; 10 min at 360 nm; glyphosate 0-10000 μM; text prints 0.95 μM; read-out: I50
T2 construct: native enzyme in raw leaf extract; both isozymes expressed
Description: EPSPS activity in leaf extract, continuous phosphate release (EnzChek) on EPSPS of the susceptible (S) population (EPSPS1 and EPSPS2)

Work on O=C(O)CNCP(=O)(O)O [glyphosate] yielded an IC50 [1] of 123 ± 2.1 µM, an IC50 [2] of 8.2 ± 1.1 µM and an IC50 [3] of 0.96 µM.
